# Assay results published in patent publication US20250281464A1, “TREATMENT OF PATHOGENIC NEISSERIA SP. INFECTION WITH TRIAZOLE ANTIFUNGAL AGENTS” (Virginia Tech Intellectual Properties, Inc., priority 2022, published 2025).
# Read-outs that look alike come from different tables or passages of the source.
# Tests used:
# Enterococcus faecium = assay: MIC against normal gut microbiota; format: cell-based; settings: Enterococcus faecium (1 strain)
# Text: (§1) Disrupting the intestinal microbiota using broad-spectrum antimicrobial therapy increases the susceptibility of hosts to C. difficile colonization.
# Bacteroides dorei = assay: MIC against normal gut microbiota; format: cell-based; settings: Bacteroides dorei (2 strains)
# Text: as §1
# [1] = MIC against normal gut microbiota; format: cell-based
# Text: as §1
# Lactobacillus brevis = assay: MIC against normal gut microbiota; format: cell-based; settings: Lactobacillus brevis (1 strain)
# Text: as §1
# Escherichia coli = assay: MIC against normal gut microbiota; format: cell-based; settings: Escherichia coli (1 strain)
# Text: as §1
# Enterococcus faecalis = assay: MIC against normal gut microbiota; format: cell-based; settings: Enterococcus faecalis (1 strain)
# Text: as §1
# Lactobacillus casei = assay: MIC against normal gut microbiota; format: cell-based; settings: Lactobacillus casei (1 strain)
# Text: as §1
# Staphylococcus aureus = assay: MIC against normal gut microbiota; format: cell-based; settings: Staphylococcus aureus (1 strain)
# Text: as §1
# [2] = test system: Bifidobacterium angulatum; assay: MIC against normal gut microbiota; format: cell-based; settings: Bifidobacterium angulatum (1 strain)
# Text: as §1
# Bacteroides fragilis = assay: MIC against normal gut microbiota; format: cell-based; settings: Bacteroides fragilis (4 strains)
# Text: as §1
# Lactobacillus rhamnosus = assay: MIC against normal gut microbiota; format: cell-based; settings: Lactobacillus rhamnosus (1 strain)
# Text: as §1
# N. meingitidis = assay: MIC against Neisseria spp.; format: cell-based, Neisseria meningitidis; settings: N. meingitidis (5 strains)
# N. lactamica = assay: MIC against Neisseria spp.; format: cell-based; settings: N. lactamica (1 strain)
# Text: (§2) Intrigued by the specificity and potent activity of azoles against N. gonorrhoeae, we evaluated the extent of the azoles' antibacterial activity against other Neisseria species (Table 8).
# N. mucosa = assay: MIC against Neisseria spp.; format: cell-based; settings: N. mucosa (1 strain)
# Text: as §2
# N. flavescens = assay: MIC against Neisseria spp.; format: cell-based; settings: N. flavescens (1 strain)
# Text: as §2
# L. johnsonii = assay: MIC against commensal vaginal Lactobacillus strains; format: cell-based, Lactobacillus johnsonii
# N. gonorrhoeae isolates = assay: MIC against panel of N. gonorrhoeae clinical isolates; format: cell-based, Neisseria gonorrhoeae; settings: for MIC50 / MIC90: Neisseria gonorrhoeae; for MIC50: read-out: MIC50; for MIC90: read-out: MIC90
# N. gonorrhoeae [3] = assay: Drug library screen against N. gonorrhoeae; format: cell-based, Neisseria gonorrhoeae; settings: Johns Hopkins Clinical Compounds Library, MCE FDA-Approved Drug Library, Pharmakon library; killing in clinical range
# Text: To identify drugs capable of killing Neisseria gonorrhoeae, the Johns Hopkins Clinical Compounds Library (1514), the MCE FDA-Approved Drug Library (2441), and the Pharmakon library (1600) were screened against N. gonorrhoeae. Positive hits that are capable of killing Neisseria gonorrhoeae in clinical range were identified (itraconazole, ravuconazole and isavuconazole).
# N. gonorrhoeae [4] = assay: Female mouse model of N. gonorrhoeae genital tract infection; format: in vivo; settings: N. gonorrhoeae FA1090, low dose 100 mg/kg orally
# Description: FIG. 1—Efficacy of Ravuconazole one oral dose in a mouse model against N. gonorrhoeae FA1090. N. gonorrhoeae burden (average±standard deviation log 10 CFU/mL) after treatment with a single dose of ravuconazole (40 mg/kg) (fosravuconazole/E-1224 Prodrug) via oral gavage. As a negative control, mice (n=8) were administered the vehicle (water), As a positive control, a group of mice received a single intraperitoneal dose of ceftriaxone (15 mg/kg in water). Vaginal swabs were collected daily and cultured to determine the number of viable bacteria. The limit of detection was 10 CFU/mL. The data were analyzed via a two-way ANOVA followed by Dunnett's test for multiple comparisons. Asterisks indicate a statistical significant difference between mice treated with either ravuconazole or ceftriaxone as compared to the vehicle-treated mice.
# FIG. 2A-2C—Efficacy of Ravuconazole one oral dose in a mouse model against drug-resistant strains. […] N. gonorrhoeae burden (average±standard deviation log 10 CFU/mL) after treatment with a single dose of ravuconazole (160 mg/kg) (fosravuconazole/E-1224 Prodrug) via oral gavage. […] The data were analyzed via a two-way ANOVA followed by Dunnett's test for multiple comparisons. […]
# FIG. 3—Efficacy of 3 doses of isavuconazole against the vaginal burden of N. gonorrhoeae. […] The data were analyzed via a two-way ANOVA followed by Dunnett's test for multiple comparisons. […]
# [5] = Table 1, 104 N. gonorrhoeae isolates
# [6] = Table 3, 103 N. gonorrhoeae isolates with different resistance profiles
smiles,measurement,setting,value
C[C@@H](c1nc(-c2ccc(C#N)cc2)cs1)[C@](O)(Cn1cncn1)c1cc(F)ccc1F [Isavuconazole],MIC Range,Enterococcus faecium,>256 µg/mL
same,MIC Range,Bacteroides dorei,>256 µg/mL
same,MIC Range,[1]; Bacteroides adolescentis (2 strains),>256 µg/mL
same,MIC Range,[1]; Bacteroides breve (2 strains),>256 µg/mL
same,MIC Range,[1]; Bacteroides longum (2 strains),>256 µg/mL
same,MIC Range,Lactobacillus brevis,>256 µg/mL
same,MIC Range,Escherichia coli,>256 µg/mL
same,MIC Range,Enterococcus faecalis,>256 µg/mL
same,MIC Range,Lactobacillus casei,>256 µg/mL
same,MIC Range,Staphylococcus aureus,>256 µg/mL
same,MIC Range,[2],>256 µg/mL
same,MIC Range,Bacteroides fragilis,>256 µg/mL
same,MIC Range,Lactobacillus rhamnosus,>256 µg/mL
same,MIC Range,N. meingitidis,0.25 to 0.5 µg/mL
same,MIC Range,N. lactamica,1 µg/mL
same,MIC Range,N. mucosa,8 µg/mL
same,MIC Range,N. flavescens,16 µg/mL
same,MIC,"L. johnsonii; Lactobacillus johnsonii, L. johnsonii HM-643",> 256 µg/mL
same,MIC Range,"L. johnsonii; Table 6, L. johsonii (2 strains)",≥256 µg/mL
same,MIC50,N. gonorrhoeae isolates; [5],0.5 µg/mL
same,MIC90,N. gonorrhoeae isolates; [5],1 µg/mL
same,MIC50,N. gonorrhoeae isolates; [6],0.5 µg/mL
same,MIC90,N. gonorrhoeae isolates; [6],1 µg/mL
same,MIC Range,N. gonorrhoeae isolates; [5],0.015 to 2 µg/mL
same,MIC Range,N. gonorrhoeae isolates; [6],0.015 to 4 µg/mL
same,screening outcome,N. gonorrhoeae [3],Positive hits
same,infected mice in which the infection was cleared,N. gonorrhoeae [4]; second day,50%
same,infected mice in which the infection was cleared,N. gonorrhoeae [4]; third day of treatment,100%
